The values that follow come from patent US20150197497A1, “SELECTIVE INHIBITORS OF HISTONE DEACETYLASE ISOFORM 6 AND METHODS THEREOF” (DANA-FARBER CANCER INSTITUTE, INC., priority 2011, published 2015).

Each structure is given as a SMILES string. pEC50, pIC50: −log10 of the molar value.

In one test the test system is acetylated histones. Nature of the test: High-content image analysis of induction of acetylated histones in A549 cells. The conditions noted are these: for pEC50: Homo sapiens, A549, 8 h, read-out: EC50 for half-maximal induction of acetylated histones (AcHistone).
A further test addresses T1, HDAC5 (Homo sapiens, UniProt Q9UQL6).
T1 construct: Recombinant, full-length HDAC protein (BPS Biosciences) was incubated with fluorophore conjugated substrate; purchased BPS Biosciences
Briefly: In vitro HDAC enzyme inhibition assay, HDAC5. Type of test: biochemical. The conditions noted are these: for HDAC5/HDAC6 in vitro selectivity: ratio of IC50 for HDAC5 relative to that of HDAC6; for pIC50: recombinant full-length HDAC5, substrate MAZ1675 40 μM; for selectivity toward HDAC6 compared to HDAC5 (in words): tested in vitro. As for the experimental part: (§1) In vitro Histone Deacetylase enzyme assays were performed using Class I (isoforms: HDAC1, HDAC2, HDAC3 and HDAC8), class IIa (isoforms: HDAC4, HDAC5, HDAC7 and HDAC9) and class IIb (isoform HDAC6).
(§2) HDAC activities were determined in vitro with an optimized homogenous assay performed in a 384-well plate. Recombinant, full-length HDAC protein (BPS Biosciences) was incubated with fluorophore conjugated substrate, MAZ1600 and MAZ1675, at Km=[S]. […] Reactions were performed in assay buffer (50 mM HEPES, 100 mM KCl, 0.001% Tween-20, 0.05% BSA, 200 μM tris(2-carboxyethyl)phosphine (TCEP), pH 7.4) and followed for fluorogenic release of 7-amino-4-methylcoumarin from substrate upon deacetylase and trypsin enzymatic activity. Fluorescence measurements were obtained every five minutes using a multilabel plate reader and plate-stacker (Envision; Perkin-Elmer). Each plate was analyzed by plate repeat, and the first derivative within the linear range was imported into analytical software (Spotfire DecisionSite and GraphPad Prism). Replicate experimental data from incubations with inhibitor were normalized to controls.

The next test concerns the target T2, HDAC1 (Homo sapiens, UniProt Q13547).
T2 construct: Recombinant, full-length HDAC protein (BPS Biosciences) was incubated with fluorophore conjugated substrate; purchased BPS Biosciences
Briefly: In vitro HDAC enzyme inhibition assay, HDAC1. The conditions noted are these: for HDAC1/HDAC6 in vitro selectivity: ratio of IC50 for HDAC1 relative to that of HDAC6; for pIC50: recombinant full-length HDAC1, substrate MAZ1600 21 μM. The class given is biochemical. The protocol: as §1, §2

A further test concerns the target T3, HDAC2 (Homo sapiens, UniProt Q92769).
T3 construct: Recombinant, full-length HDAC protein (BPS Biosciences) was incubated with fluorophore conjugated substrate; purchased BPS Biosciences
Briefly: In vitro HDAC enzyme inhibition assay, HDAC2. Type of test: biochemical. The conditions noted are these: for HDAC2/HDAC6 in vitro selectivity: ratio of IC50 for HDAC2 relative to that of HDAC6; for pIC50: recombinant full-length HDAC2, substrate MAZ1600 22 μM. The protocol: as §1, §2

For the next test, the target named is T4, HDAC9 (Homo sapiens, UniProt Q9UKV0).
T4 construct: Recombinant, full-length HDAC protein (BPS Biosciences) was incubated with fluorophore conjugated substrate; purchased BPS Biosciences
T4 sequence (Q9UKV0 whole entry): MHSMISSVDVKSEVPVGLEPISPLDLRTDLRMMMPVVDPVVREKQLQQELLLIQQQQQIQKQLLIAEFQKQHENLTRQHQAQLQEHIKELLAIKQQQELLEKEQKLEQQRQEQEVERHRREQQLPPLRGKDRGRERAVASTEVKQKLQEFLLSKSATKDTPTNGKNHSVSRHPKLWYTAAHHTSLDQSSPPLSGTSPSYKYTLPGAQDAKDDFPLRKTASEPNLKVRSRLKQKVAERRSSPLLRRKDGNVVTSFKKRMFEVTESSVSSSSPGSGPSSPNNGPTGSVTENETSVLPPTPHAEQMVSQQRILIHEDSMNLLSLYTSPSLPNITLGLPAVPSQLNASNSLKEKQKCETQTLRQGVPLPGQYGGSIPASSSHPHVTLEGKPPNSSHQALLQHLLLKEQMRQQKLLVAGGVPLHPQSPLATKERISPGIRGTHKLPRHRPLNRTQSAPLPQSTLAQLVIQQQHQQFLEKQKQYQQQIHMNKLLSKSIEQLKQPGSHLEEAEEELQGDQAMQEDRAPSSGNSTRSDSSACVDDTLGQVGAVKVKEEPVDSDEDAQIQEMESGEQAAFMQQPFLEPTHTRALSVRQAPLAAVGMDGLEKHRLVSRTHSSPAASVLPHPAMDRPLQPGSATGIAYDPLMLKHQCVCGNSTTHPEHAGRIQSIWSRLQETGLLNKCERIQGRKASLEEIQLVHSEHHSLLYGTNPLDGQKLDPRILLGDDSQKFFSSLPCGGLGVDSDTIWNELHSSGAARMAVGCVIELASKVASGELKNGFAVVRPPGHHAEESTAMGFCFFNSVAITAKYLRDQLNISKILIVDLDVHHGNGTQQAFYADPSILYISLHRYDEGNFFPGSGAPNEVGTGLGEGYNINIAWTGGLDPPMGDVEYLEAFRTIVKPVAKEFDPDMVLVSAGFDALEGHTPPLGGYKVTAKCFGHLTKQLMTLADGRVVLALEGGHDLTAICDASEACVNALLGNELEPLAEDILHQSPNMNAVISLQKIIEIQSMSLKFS
Nature of the test: In vitro HDAC enzyme inhibition assay, HDAC9. The conditions noted are these: for HDAC9/HDAC6 in vitro selectivity: ratio of IC50 for HDAC9 relative to that of HDAC6; for pIC50: recombinant full-length HDAC9, substrate MAZ1675 26 μM; for selectivity toward HDAC6 compared to HDAC9 (in words): tested in vitro. The class given is biochemical. The protocol:
as §1, §2

The target in a further test is T5, HDAC8 (Homo sapiens, UniProt Q9BY41).
T5 construct: Recombinant, full-length HDAC protein (BPS Biosciences) was incubated with fluorophore conjugated substrate; purchased BPS Biosciences
T5 sequence (Q9BY41 1-377): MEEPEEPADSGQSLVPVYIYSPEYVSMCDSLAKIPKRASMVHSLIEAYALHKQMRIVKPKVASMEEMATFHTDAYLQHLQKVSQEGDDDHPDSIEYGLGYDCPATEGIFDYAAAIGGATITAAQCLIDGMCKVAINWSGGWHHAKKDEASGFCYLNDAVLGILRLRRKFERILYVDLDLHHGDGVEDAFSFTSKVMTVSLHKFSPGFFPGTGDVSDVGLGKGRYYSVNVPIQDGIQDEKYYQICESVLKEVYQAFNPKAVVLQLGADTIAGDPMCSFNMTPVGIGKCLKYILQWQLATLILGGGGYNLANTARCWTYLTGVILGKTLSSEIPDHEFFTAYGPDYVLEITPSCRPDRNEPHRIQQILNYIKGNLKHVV
Briefly: In vitro HDAC enzyme inhibition assay, HDAC8. The class given is biochemical. The conditions noted are these: for HDAC8/HDAC6 in vitro selectivity: ratio of IC50 for HDAC8 relative to that of HDAC6; for pIC50: recombinant full-length HDAC8, substrate MAZ1675 282 μM. The protocol: as §1, §2

One may read the pEC50 as the negative decadic logarithm of the EC50, by convention in mol/L. As a reminder, the pIC50 is the negative decadic logarithm of the IC50, by convention in mol/L.

T3 sequence (Q92769 whole entry): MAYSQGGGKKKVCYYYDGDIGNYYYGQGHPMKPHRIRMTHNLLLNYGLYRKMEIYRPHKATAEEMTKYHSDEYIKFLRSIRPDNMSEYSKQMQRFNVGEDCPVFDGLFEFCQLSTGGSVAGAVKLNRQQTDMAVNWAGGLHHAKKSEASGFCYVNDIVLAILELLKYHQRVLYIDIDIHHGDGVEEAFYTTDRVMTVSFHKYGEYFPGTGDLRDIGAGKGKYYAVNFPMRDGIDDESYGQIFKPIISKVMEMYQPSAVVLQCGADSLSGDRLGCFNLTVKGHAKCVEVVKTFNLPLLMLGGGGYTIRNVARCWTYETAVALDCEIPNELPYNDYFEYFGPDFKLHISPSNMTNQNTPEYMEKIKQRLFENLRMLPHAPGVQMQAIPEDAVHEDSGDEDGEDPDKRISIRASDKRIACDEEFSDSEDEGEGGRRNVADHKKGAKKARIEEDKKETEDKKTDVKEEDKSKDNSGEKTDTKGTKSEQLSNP
T1 sequence (Q9UQL6 whole entry): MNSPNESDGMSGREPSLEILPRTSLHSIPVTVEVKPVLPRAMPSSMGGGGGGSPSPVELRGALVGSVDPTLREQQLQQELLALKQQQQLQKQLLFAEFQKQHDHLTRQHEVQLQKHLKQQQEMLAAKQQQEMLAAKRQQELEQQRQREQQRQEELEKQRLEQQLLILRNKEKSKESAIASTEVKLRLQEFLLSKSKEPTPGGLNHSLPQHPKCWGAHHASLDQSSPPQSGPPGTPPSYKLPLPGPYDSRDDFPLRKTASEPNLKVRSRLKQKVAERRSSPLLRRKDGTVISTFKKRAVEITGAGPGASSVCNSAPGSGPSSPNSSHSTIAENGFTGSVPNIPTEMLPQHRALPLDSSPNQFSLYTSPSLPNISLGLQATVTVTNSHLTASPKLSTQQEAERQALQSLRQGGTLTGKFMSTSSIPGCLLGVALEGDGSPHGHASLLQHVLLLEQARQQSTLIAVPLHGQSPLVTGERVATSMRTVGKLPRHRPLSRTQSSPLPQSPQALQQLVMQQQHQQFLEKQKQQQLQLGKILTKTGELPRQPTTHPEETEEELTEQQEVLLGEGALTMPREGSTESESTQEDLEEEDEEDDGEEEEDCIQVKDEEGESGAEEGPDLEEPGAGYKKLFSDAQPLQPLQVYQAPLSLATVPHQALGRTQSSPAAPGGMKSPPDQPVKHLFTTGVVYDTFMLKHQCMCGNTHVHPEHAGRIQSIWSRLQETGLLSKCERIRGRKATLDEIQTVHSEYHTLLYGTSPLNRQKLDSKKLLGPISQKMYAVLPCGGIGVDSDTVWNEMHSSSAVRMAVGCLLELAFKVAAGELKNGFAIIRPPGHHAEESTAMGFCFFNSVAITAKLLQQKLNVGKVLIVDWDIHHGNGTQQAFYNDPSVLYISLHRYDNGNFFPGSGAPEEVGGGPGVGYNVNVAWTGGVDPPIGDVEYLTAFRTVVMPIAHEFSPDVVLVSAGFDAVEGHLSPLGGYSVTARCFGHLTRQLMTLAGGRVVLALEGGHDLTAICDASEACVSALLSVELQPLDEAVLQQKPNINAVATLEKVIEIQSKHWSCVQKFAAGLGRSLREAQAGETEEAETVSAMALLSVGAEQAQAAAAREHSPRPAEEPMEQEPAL
T2 sequence (Q13547 whole entry): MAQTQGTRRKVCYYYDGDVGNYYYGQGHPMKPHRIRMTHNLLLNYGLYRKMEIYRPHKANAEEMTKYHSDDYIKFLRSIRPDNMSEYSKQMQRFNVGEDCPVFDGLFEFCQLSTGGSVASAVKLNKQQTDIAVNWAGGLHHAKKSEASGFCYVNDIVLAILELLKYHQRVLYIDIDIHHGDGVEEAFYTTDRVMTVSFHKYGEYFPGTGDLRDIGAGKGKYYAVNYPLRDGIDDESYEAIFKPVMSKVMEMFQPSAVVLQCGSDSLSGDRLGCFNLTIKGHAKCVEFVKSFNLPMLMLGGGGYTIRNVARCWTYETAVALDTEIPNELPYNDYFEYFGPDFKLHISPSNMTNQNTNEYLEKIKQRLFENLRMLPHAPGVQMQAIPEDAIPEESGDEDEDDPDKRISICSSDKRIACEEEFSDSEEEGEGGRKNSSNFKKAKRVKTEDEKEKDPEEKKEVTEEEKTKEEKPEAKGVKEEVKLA
Description for acetylated histones: Cells were treated with each test HDACi compound with an automated pin transfer instrument (Janus, Perkin Elmer) and incubated for 8 hours. […] Fixation solution was aspirated and 90 μL of washing solution (0.1% Triton X-100 in PBS) was added prior to 10 minute incubation at 4° C. Washing solution was aspirated and cells were incubated at 4° C. for about 1 hour in blocking solution (0.1% Triton X-100+2% BSA in PBS). Washing solution was aspirated, and cells were incubated for about 1 hour at 4° C. in primary antibody for acetylated-tubulin (Sigma T7451) and acetylated-histone (Cell Signaling #9441L) at a 1:1000 dilution in blocking solution. Primary antibody solution was aspirated, and cells were washed three times in 90 μL of washing solution. […] Secondary antibody and nuclear staining solution was aspirated and cells were washed three times in 90 μL of washing solution. After the third wash, 50 μL of PBS was added to each well. Image acquisition was done on a high content imaging microscope (ImageXpress Micro, Molecular Devices), and image analysis (MetaXpress, Molecular Devices) was performed to obtain average acetylated-tubulin and acetylated-histone signal per cell based on treatment. Replicate experimental data from incubations with inhibitor were normalized to DMSO controls.

As for `O=C(NO)c1ccc(Cn2c(=O)[nH]c3cc(C(F)(F)F)ccc32)cc1` [B6, N-hydroxy-4-((2-oxo-5-(trifluoromethyl)-2,3-dihydro-1H-benzo[d]imidazol-1-yl)methyl)benzamide], the “levels of acetylated histone, dose response (in words)” value in the test with acetylated histones (A549 cells, FIG. 11) is “absence of the dose-dependent response”. In addition, the pEC50 with acetylated histones is approximately 6.20. Besides, at HDAC5, the “HDAC5/HDAC6 in vitro selectivity” value is on record as 122813, the pIC50 was 6.12 and the “selectivity toward HDAC6 compared to HDAC5 (in words)” value is “exceptionally high selectivity (Inhibitors with in vitro selectivity values for HDAC6 of at least 30,000 are considered to have exceptionally high selectivity toward HDAC6)”. On HDAC1, the “HDAC1/HDAC6 in vitro selectivity” value stood at 1951 and the negative logarithm of the IC50 (pIC50) was 7.92. For the same compound, at HDAC2, the “HDAC2/HDAC6 in vitro selectivity” value was found to be 1754 and the pIC50 is 7.96. Besides, at HDAC9, the “HDAC9/HDAC6 in vitro selectivity” value is 114680, the pIC50 was 6.15 and the “selectivity toward HDAC6 compared to HDAC9 (in words)” value was “exceptionally high selectivity (Inhibitors with in vitro selectivity values for HDAC6 of at least 30,000 are considered to have exceptionally high selectivity toward HDAC6)”. For the same compound, at HDAC8, the “HDAC8/HDAC6 in vitro selectivity” value came out at 48637 and the negative logarithm of the IC50 (pIC50) is 6.52.

In the case of `COc1ccc2c(c1)[nH]c(=O)n2Cc1ccc(C(=O)NO)cc1` [B7, N-hydroxy-4-((5-methoxy-2-oxo-2,3-dihydro-1H-benzo[d]imidazol-1-yl)methyl)benzamide], the negative-log EC50 (pEC50) with acetylated histones is 5.81. Further, at HDAC5, the “HDAC5/HDAC6 in vitro selectivity” value worked out at 57925, the pIC50 is 5.83 and the “selectivity toward HDAC6 compared to HDAC5 (in words)” value is “exceptionally high selectivity (Inhibitors with in vitro selectivity values for HDAC6 of at least 30,000 are considered to have exceptionally high selectivity toward HDAC6)”. On HDAC1, the “HDAC1/HDAC6 in vitro selectivity” value was found to be 1224 and the negative-log IC50 (pIC50) is 7.50. For the same compound, on HDAC2, the “HDAC2/HDAC6 in vitro selectivity” value came to 991 and the pIC50 was 7.59. At HDAC9, the “HDAC9/HDAC6 in vitro selectivity” value stood at 47920, the pIC50 is 5.91 and the “selectivity toward HDAC6 compared to HDAC9 (in words)” value is “exceptionally high selectivity (Inhibitors with in vitro selectivity values for HDAC6 of at least 30,000 are considered to have exceptionally high selectivity toward HDAC6)”. For the same compound, on HDAC8, the “HDAC8/HDAC6 in vitro selectivity” value was found to be 21403 and the negative logarithm of the IC50 (pIC50) is 6.26.

`O=C(NO)c1ccc(Cn2nnc3ccccc32)cc1` [C1, 4-((1H-benzo[d][1,2,3]triazol-1-yl)methyl)-N-hydroxybenzamide]: the negative-log EC50 (pEC50) with acetylated histones was 5.15. Further, on HDAC5, the “HDAC5/HDAC6 in vitro selectivity” value came out at 59773, the pIC50 was 6.02 and the “selectivity toward HDAC6 compared to HDAC5 (in words)” value is reported as “exceptionally high selectivity (Inhibitors with in vitro selectivity values for HDAC6 of at least 30,000 are considered to have exceptionally high selectivity toward HDAC6)”. Further, on HDAC1, the “HDAC1/HDAC6 in vitro selectivity” value was determined as 3996 and the pIC50 is 7.19. Further, at HDAC2, the “HDAC2/HDAC6 in vitro selectivity” value is on record as 4884 and the pIC50 is 7.11. On HDAC9, the “HDAC9/HDAC6 in vitro selectivity” value turned out to be 67800, the pIC50 is 5.96 and the “selectivity toward HDAC6 compared to HDAC9 (in words)” value is listed as “exceptionally high selectivity (Inhibitors with in vitro selectivity values for HDAC6 of at least 30,000 are considered to have exceptionally high selectivity toward HDAC6)”. Moreover, on HDAC8, the “HDAC8/HDAC6 in vitro selectivity” value is given as 19098 and the pIC50 is 6.52.

Turning to `O=C(NO)c1ccc(Cn2nnc3cc(F)ccc32)cc1` [C3, 4-((5-fluoro-1H-benzo[d][1,2,3]triazol-1-yl)methyl)-N-hydroxybenzamide], the pEC50 in the test on acetylated histones is 5.82. For the same compound, on HDAC5, the “HDAC5/HDAC6 in vitro selectivity” value is given as 68665, the pIC50 is 5.74 and the “selectivity toward HDAC6 compared to HDAC5 (in words)” value is “exceptionally high selectivity (Inhibitors with in vitro selectivity values for HDAC6 of at least 30,000 are considered to have exceptionally high selectivity toward HDAC6)”. Further, on HDAC1, the “HDAC1/HDAC6 in vitro selectivity” value was found to be 8300 and the pIC50 is 6.66. Besides, on HDAC2, the “HDAC2/HDAC6 in vitro selectivity” value is 10108 and the negative-log IC50 (pIC50) is 6.58. Besides, on HDAC9, the “HDAC9/HDAC6 in vitro selectivity” value came out at 62138, the negative-log IC50 (pIC50) was 5.79 and the “selectivity toward HDAC6 compared to HDAC9 (in words)” value is “exceptionally high selectivity (Inhibitors with in vitro selectivity values for HDAC6 of at least 30,000 are considered to have exceptionally high selectivity toward HDAC6)”. Also, on HDAC8, the “HDAC8/HDAC6 in vitro selectivity” value amounted to 28870 and the pIC50 was 6.12.

As to `O=C(NO)c1ccc(Cn2nnc3cc(Cl)ccc32)cc1` [C4, 4-((5-chloro-1H-benzo[d][1,2,3]triazol-1-yl)methyl)-N-hydroxybenzamide], the pEC50 in the test with acetylated histones is 5.22. Moreover, at HDAC5, the “HDAC5/HDAC6 in vitro selectivity” value was 26352 and the pIC50 is 5.84. At HDAC1, the “HDAC1/HDAC6 in vitro selectivity” value is 1712 and the pIC50 was 7.02. At HDAC2, the “HDAC2/HDAC6 in vitro selectivity” value was determined as 2562 and the negative-log IC50 (pIC50) was 6.85. On HDAC9, the “HDAC9/HDAC6 in vitro selectivity” value turned out to be 26037 and the negative logarithm of the IC50 (pIC50) was 5.84. Besides, on HDAC8, the “HDAC8/HDAC6 in vitro selectivity” value was 11132 and the pIC50 is 6.21.

In the case of `O=C(NO)c1ccc(Cn2nnc3cc(Br)ccc32)cc1` [C5, 4-((5-bromo-1H-benzo[d][1,2,3]triazol-1-yl)methyl)-N-hydroxybenzamide], in the test on acetylated histones, the pEC50 was 5.64. In addition, on HDAC5, the “HDAC5/HDAC6 in vitro selectivity” value turned out to be 48751, the negative logarithm of the IC50 (pIC50) is 5.90 and the “selectivity toward HDAC6 compared to HDAC5 (in words)” value is “exceptionally high selectivity (Inhibitors with in vitro selectivity values for HDAC6 of at least 30,000 are considered to have exceptionally high selectivity toward HDAC6)”. On HDAC1, the “HDAC1/HDAC6 in vitro selectivity” value is 2113 and the pIC50 is 7.26. At HDAC2, the “HDAC2/HDAC6 in vitro selectivity” value is given as 3277 and the negative logarithm of the IC50 (pIC50) is 7.07. On HDAC9, the “HDAC9/HDAC6 in vitro selectivity” value turned out to be 42107, the negative-log IC50 (pIC50) was 5.96 and the “selectivity toward HDAC6 compared to HDAC9 (in words)” value is “exceptionally high selectivity (Inhibitors with in vitro selectivity values for HDAC6 of at least 30,000 are considered to have exceptionally high selectivity toward HDAC6)”. At HDAC8, the “HDAC8/HDAC6 in vitro selectivity” value was determined as 16483 and the pIC50 is 6.37.
